No end group written: not given here.
Key:
S. aureus EMRSA-15 = test: microbe, parasite or virus in culture; type: cell-based, Staphylococcus aureus; conditions: Methicillin-resistant, microbroth dilution, cation-adjusted MHB, 5x10^5 CFU/ml, 37°C, 18–24 h, visible growth; for MIC S. aureus EMRSA-15 (+): peptides and Vancomycin hydrochloride 512–0.25μg/ml, peptides >70% purity (Cecropin P1 >95%)
Procedure: (§1) Prioritised helminth AMP-LPs were synthesised at >70% purity (Genosphere Biotechnologies). […] Peptides and control antibiotics [Ciprofloxacin (for gram-negative species; Sigma-Aldrich) and Vancomycin hydrochloride (for gram-positive species; Sigma-Aldrich)] were dissolved in sterile ultrapure water at a concentration of 5.12mg/ml. Minimum inhibitory concentrations (MICs) were determined for gram-positive and gram-negative bacterial isolates (see Table 3 for species) using microbroth dilution assays as described previously. Briefly, a single colony from each bacterial species was inoculated in cation-adjusted Mueller Hinton Broth (MHB) and grown for 18–24 hours at 37°C with shaking (225rpm) before being adjusted to a final bacterial density of 5x10^5 colony forming units (CFU) per ml. Peptides and Vancomycin hydrochloride were diluted using sterile MHB in sterile U-bottom 96 well polypropylene microplates (Greiner Bio One, UK) to give a concentration gradient ranging from 512–0.25μg/ml. Ciprofloxacin was further diluted in sterile MHB to give a concentration gradient ranging from 32–0.02μg/ml. Microplates were incubated at 37°C for 18–24 hours. Plates were assessed for visible growth and the MIC was defined as the lowest concentration of peptide or antibiotic that inhibited visible growth of a bacterial culture after an 18–24-hour incubation. MIC data were validated by positive and negative control antibiotic MIC data for each bacterial isolate.

S. aureus RN4220 = test: microbe, parasite or virus in culture; type: cell-based, Staphylococcus aureus; conditions: Methicillin-Sensitive, microbroth dilution, cation-adjusted MHB, 5x10^5 CFU/ml, 37°C, 18–24 h, visible growth; for MIC S. aureus RN4220 (+): peptides and Vancomycin hydrochloride 512–0.25μg/ml, peptides >70% purity (Cecropin P1 >95%)
Procedure: as §1

E. coli K12 = test: Minimum inhibitory concentration, microbroth dilution; type: cell-based, Escherichia coli; conditions: cation-adjusted MHB, 5x10^5 CFU/ml, 37°C, 18–24 h, visible growth; for MIC E. coli K12 (-): peptides 512–0.25μg/ml, >70% purity (Cecropin P1 >95%), Ciprofloxacin 32–0.02μg/ml; for MIC: read-out: MIC E. coli K12 (-), μM in brackets
Procedure: as §1

P. aeruginosa PA01 = test: as above; type: cell-based, Pseudomonas aeruginosa; conditions: cation-adjusted MHB, 5x10^5 CFU/ml, 37°C, 18–24 h, visible growth; for MIC P. aeruginosa PA01 (-): peptides 512–0.25μg/ml, >70% purity (Cecropin P1 >95%), Ciprofloxacin 32–0.02μg/ml; for MIC: read-out: MIC P. aeruginosa PA01 (-), μM in brackets
Procedure: as §1

E. faecalis JH2-2 = test: microbe, parasite or virus in culture; type: cell-based, Enterococcus faecalis
Procedure: as §1

A. baumannii DSM 30007 = test: Minimum inhibitory concentration, microbroth dilution; type: cell-based, Acinetobacter baumannii; conditions: cation-adjusted MHB, 5x10^5 CFU/ml, 37°C, 18–24 h, visible growth; for MIC A. baumannii DSM 30007 (-): peptides 512–0.25μg/ml, >70% purity (Cecropin P1 >95%), Ciprofloxacin 32–0.02μg/ml; for MIC: read-out: MIC A. baumannii DSM 30007 (-), μM in brackets
Procedure: as §1

[1] = test system: gram-positive and gram-negative bacterial isolates; type: cell-based
Procedure: as §1, with “MIC data were validated by positive and negative control antibiotic MIC data for each bacterial isolate.” left out

[2] = Computationally predicted from Kunitz inhibitor protein; ref [21]; cited from earlier work
Excerpt: Table 4 Reported AMPs from Schistosoma mansoni. | column: Activity reported

[3] = microbroth dilution, cation-adjusted MHB, 5x10^5 CFU/ml, 37°C, 18–24 h, visible growth
[4] = microbroth dilution, cation-adjusted MHB, 5x10^5 CFU/ml, 37°C, 18–24 h, visible growth, peptides and Vancomycin hydrochloride 512–0.25μg/ml, peptides >70% purity (Cecropin P1 >95%)

Substance | MIC S. aureus EMRSA-15 (+) (S. aureus EMRSA-15) | MIC S. aureus RN4220 (+) (S. aureus RN4220) | MIC E. coli K12 (-) (E. coli K12) | MIC P. aeruginosa PA01 (-) (P. aeruginosa PA01) | MIC E. faecalis JH2-2 (+) (E. faecalis JH2-2; [4]) | MIC A. baumannii DSM 30007 (-) (A. baumannii DSM 30007) | also measured
GAGRWRANRRANRRRFARRLRRNQRRAAQKRRAHARRHQRNLRRAARKIRRIQRR[nh2] (GAGRWRANRRANRRRFARRLRRNQRRAAQKRRAHARRHQRNLRRAARKIRRIQRR-NH2) [nAMP-LP-298, arginine-rich nematode AMP-like peptide conserved across four Clade 9/V gastrointestinal parasites] | 64 µg/mL | 32 µg/mL | 64 µg/mL | 64 µg/mL | 64 µg/mL | 32 µg/mL | MIC S. aureus EMRSA-15 (+), μM in brackets (S. aureus EMRSA-15): 9 µM; MIC S. aureus RN4220 (+), μM in brackets (S. aureus RN4220): 5 µM; MIC (E. coli K12): 9 µM; MIC (P. aeruginosa PA01): 9 µM; MIC E. faecalis JH2-2 (+), μM in brackets (E. faecalis JH2-2; [3]): 9 µM; MIC (A. baumannii DSM 30007): 5 µM
GFGKWVKKKWGSVRKGASKLVKGVKKVFPKKGIPIIRYERRF [nAMP-LP-249] | – | – | – | – | – | – | MIC E. faecalis JH2-2 (+) (E. faecalis JH2-2; JH2-2): 16 µg/mL; MIC against gram-negative species screened [1]: 8 µg/mL
GILDIKNKVSNLF [Schistocin-3] | – | – | – | – | – | – | Activity reported [2]: Antibacterial Antifungal
GILDIKNKVSNLFKKIK [Schistocin-2] | – | – | – | – | – | – | Activity reported [2]: Antifungal
GILDIKNKVSNLFKKIKGEK [Schistocin-1] | – | – | – | – | – | – | Activity reported (all activity) [2]: All activity >100μM
GKKDEGKEVVDDKAGDKKGMKKSFRRQQGWIWIYW [nAMP-LP-1231, nematode AMP-like peptide selected for synthesis and MIC screening] | / (/ indicates that there was no activity at the highest concentration of peptide used (512μg/ml)) | / (/ indicates that there was no activity at the highest concentration of peptide used (512μg/ml)) | / (/ indicates that there was no activity at the highest concentration of peptide used (512μg/ml)) | / (/ indicates that there was no activity at the highest concentration of peptide used (512μg/ml)) | / (/ indicates that there was no activity at the highest concentration of peptide used (512μg/ml)) | / (/ indicates that there was no activity at the highest concentration of peptide used (512μg/ml)) | –
GLGKSLKKIGRKIDKGFRKIRDRAGASVSFGSGQKPQGSIQISPV-NH2 [nAMP-LP-617] | / (/ indicates that there was no activity at the highest concentration of peptide used (512μg/ml)) | / (/ indicates that there was no activity at the highest concentration of peptide used (512μg/ml)) | 4 µg/mL | 32 µg/mL | / (/ indicates that there was no activity at the highest concentration of peptide used (512μg/ml)) | 8 µg/mL | MIC (E. coli K12): 1 µM; MIC (P. aeruginosa PA01): 7 µM; MIC against gram-negative species screened [1]: 4 to 32 µg/mL; MIC (A. baumannii DSM 30007): 2 µM
GTFWKAVGAGALIGGGAALLSKAFK[nh2] [nAMP-LP-18, nematode AMP-like peptide identified in four Meloidogyne species] | 64 µg/mL | 64 µg/mL | / (/ indicates that there was no activity at the highest concentration of peptide used (512μg/ml)) | / (/ indicates that there was no activity at the highest concentration of peptide used (512μg/ml)) | 64 µg/mL | / (/ indicates that there was no activity at the highest concentration of peptide used (512μg/ml)) | MIC S. aureus EMRSA-15 (+), μM in brackets (S. aureus EMRSA-15): 27 µM; MIC S. aureus RN4220 (+), μM in brackets (S. aureus RN4220): 27 µM; MIC E. faecalis JH2-2 (+), μM in brackets (E. faecalis JH2-2; [3]): 27 µM
ISKFLKGAAIAGGLAVAGAVAYKAYKNYKKNQEQQAAATGRK [nAMP-LP-11, nematode AMP-like peptide selected for synthesis and MIC screening] | / (/ indicates that there was no activity at the highest concentration of peptide used (512μg/ml)) | / (/ indicates that there was no activity at the highest concentration of peptide used (512μg/ml)) | / (/ indicates that there was no activity at the highest concentration of peptide used (512μg/ml)) | / (/ indicates that there was no activity at the highest concentration of peptide used (512μg/ml)) | / (/ indicates that there was no activity at the highest concentration of peptide used (512μg/ml)) | / (/ indicates that there was no activity at the highest concentration of peptide used (512μg/ml)) | –
